Test results: patent publication US20240041042A1, “1-(PYRIDYL)-5-AZINYLPYRAZOLE DERIVATIVES, AND THEIR USE FOR CONTROL OF UNDESIRED PLANT GROWTH” (Bayer Aktiengesellschaft, priority 2020, published 2024)
Where two headings read alike, the source gives them in different places.

Key:
Assay type in all cases: in vivo
[1] = tested on: Viola tricolor (VIOTR); test: Post-emergence herbicidal action against VIOTR; conditions: 320 g/ha
Summary of the method: (§1)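 Post-emergence greenhouse spray, one-leaf stage, 600 l/ha water plus 0.5% additive; WP or EC formulations; application rates 320 g/ha or lower. Visual % damage vs untreated controls at ~3 weeks.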

[2] = tested on: Polygonum convolvulus (POLCO); test: Pre-emergence herbicidal action against POLCO; conditions: dosage 320 g/ha
Summary of the method: (§2)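 Herbicide applied to soil before seedling emergence, at 600 l/ha spray volume with 0.5% additive and rates up to 320 g/ha. Evaluation: visual percentage effect, about 3 weeks later, greenhouse-grown pots compared with untreated ones.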

[3] = tested on: Verconica persica (VERPE); test: Pre-emergence herbicidal action against VERPE; conditions: dosage 320 g/ha
Summary of the method: as §2

[4] = tested on: Setaria viridis (SETVI); test: Pre-emergence herbicidal action against SETVI; conditions: dosage 320 g/ha
Summary of the method: as §2

[5] = tested on: Echinochloa crus-galli (ECHCG); test: Pre-emergence herbicidal action against ECHCG; conditions: dosage 320 g/ha
Summary of the method: as §2

[6] = tested on: Amaranthus retroflexus (AMARE); test: Pre-emergence herbicidal action against AMARE; conditions: visual scoring after about 3 weeks vs untreated controls
Summary of the method: as §2

[7] = tested on: Amaranthus retroflexus (AMARE); test: Post-emergence herbicidal action against AMARE
Summary of the method: as §1

[8] = tested on: Oryza sativa (ORYSA); conditions: pre-emergence, crop plant compatibility, in comparison to untreated controls
Summary of the method: (§3)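 Scoring: visual, % of untreated control, about 3 weeks after a pre-emergence application to the soil surface. Application used WP or EC formulations diluted in water with 0.5% additive at 600 l/ha; dosage levels are marked by suffixes a, b and c.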

[9] = tested on: Zea mays (ZEAMX); conditions: pre-emergence, crop plant compatibility, in comparison to untreated controls
Summary of the method: as §3

[10] = tested on: Oryza sativa (ORYSA); conditions: crop plant compatibility
Summary of the method: (§4)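 Effects were read visually as % versus untreated controls (0% = no effect, 100% = death) about 3 weeks post-treatment. Application was a post-emergence spray at the one-leaf stage of WP/EC formulations with 0.5% additive at 600 l/ha. Different dosages are denoted a, b and c.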

[11] = tested on: Zea mays (ZEAMX); conditions: crop plant compatibility, effect vs untreated controls
Summary of the method: as §4

[12] = tested on: Triticum aestivum (TRZAS); conditions: crop plant compatibility, effect vs untreated controls
Summary of the method: as §4

[13] = tested on: Avena fatua (AVEFA); test: Pre-emergence herbicidal action against AVEFA; conditions: 320 g/ha, visual scoring after about 3 weeks vs untreated controls
Summary of the method: as §2

[14] = tested on: Viola tricolor (VIOTR); test: Pre-emergence herbicidal action against VIOTR
Summary of the method: as §2

[15] = tested on: Polygonum convolvulus (POLCO); test: Post-emergence herbicidal action against POLCO
Summary of the method: as §1

[16] = tested on: Abutilon theophrasti (ABUTH); test: Post-emergence herbicidal action against ABUTH; conditions: visual rating about 3 weeks after treatment vs untreated controls (100% = plants have died, 0% = like control plants)
Summary of the method: as §1

[17] = tested on: Alopecurus myosuroides (ALOMY); test: Pre-emergence herbicidal action against ALOMY; conditions: 320 g/ha; scored visually after about 3 weeks; 100% = plants have died
Summary of the method: as §2

[18] = tested on: Pharbitis purpurea (PHBPU); test: Pre-emergence herbicidal action against PHBPU; conditions: dosage 320 g/ha
Summary of the method: as §2

[19] = tested on: Pharbitis purpurea (PHBPU); test: Post-emergence herbicidal action against PHBPU; conditions: dosage 80 g/ha
Summary of the method: as §1

[20] = tested on: Verconica persica (VERPE); test: Post-emergence herbicidal action against VERPE
Summary of the method: as §1

[21] = tested on: Lolium rigidum (LOLRI); test: Pre-emergence herbicidal action against LOLRI; conditions: dosage 320 g/ha
Summary of the method: as §2

[22] = tested on: Setaria viridis (SETVI); test: Post-emergence herbicidal action against SETVI; conditions: dosage 320 g/ha
Summary of the method: as §1

[23] = tested on: Alopecurus myosuroides (ALOMY); test: Post-emergence herbicidal action against ALOMY; conditions: 320 g/ha, visual rating about 3 weeks after treatment vs untreated controls (100% = plants have died, 0% = like control plants)
Summary of the method: as §1

[24] = tested on: Lolium rigidum (LOLRI); test: Post-emergence herbicidal action against LOLRI; conditions: dosage 320 g/ha
Summary of the method: as §1

[25] = tested on: Matricaria inodora (MATIN); test: Pre-emergence herbicidal action against MATIN; conditions: dosage 320 g/ha
Summary of the method: as §2

[26] = tested on: Matricaria inodora (MATIN); test: Post-emergence herbicidal action against MATIN; conditions: dosage 320 g/ha
Summary of the method: as §1

[27] = tested on: Echinochloa crus-galli (ECHCG); test: Post-emergence herbicidal action against ECHCG; conditions: dosage 320 g/ha
Summary of the method: as §1

[28] = tested on: Avena fatua (AVEFA); test: Post-emergence herbicidal action against AVEFA; conditions: visual rating about 3 weeks after treatment
Summary of the method: as §1

[29] = 320 g/ha, visual rating about 3 weeks after treatment
[30] = 80 g/ha, effect in comparison to untreated controls
[31] = 80 g/ha, visual rating about 3 weeks after treatment vs untreated controls (100% = plants have died, 0% = like control plants)

Row | Pre-emergence action against ORYSA in % ([8]; 80 g/ha) [%] | Pre-emergence action against ORYSA in % ([8]; 320 g/ha) [%] | Pre-emergence action against ZEAMX in % ([9]; 80 g/ha) [%] | Post-emergence action against ORYSA in % [10, 30] [%] | SMILES | Post-emergence action against VIOTR in % [1] [%] | Pre-emergence action against POLCO in % [2] [%] | Pre-emergence action against VERPE in % [3] [%] | Pre-emergence action against SETVI in % [4] [%] | Pre-emergence action against AMARE in % ([6]; 320 g/ha) [%] | Post-emergence action against AMARE in % [7, 29] [%] | Pre-emergence action against AVEFA in % [13] [%] | Pre-emergence action against VIOTR in % ([14]; 320 g/ha, Viola tricolor) [%] | Post-emergence action against POLCO in % ([15]; dosage 320 g/ha) [%] | Post-emergence action against ABUTH in % ([16]; 80 g/ha) [%] | Pre-emergence action against ALOMY [17] [%] | Pre-emergence action against AMARE in % ([6]; 80 g/ha) [%] | Post-emergence action against AMARE in % [7, 31] [%] | Post-emergence action against VERPE in % ([20]; dosage 80 g/ha) [%] | other results
1 | 0 | 0 | 0 | 0 | C=CCNC(=O)COc1nn(-c2ncccc2F)c(-c2ccc(F)nc2)c1Br [Example I-31] | 80 | 80 | 90 | 90 | 90 | 80 | 80 | 90 | 80 |  |  |  |  |  | Pre-emergence action against ECHCG in % [5]: 90%; Post-emergence action against ORYSA in % ([10]; 320 g/ha, effect in comparison to untreated controls): 10%; Post-emergence action against ZEAMX in % ([11]; 80 g/ha): 0%; Post-emergence action against ZEAMX in % ([11]; 320 g/ha): 0%; Post-emergence action against TRZAS in % ([12]; 80 g/ha): 10%
2 | 0 |  | 0 | 0 | O=C(O)COc1nn(-c2ccccn2)c(-c2ccc(F)nc2)c1I [Example I-103] |  |  | 90 | 90 | 90 |  | 80 | 90 |  | 80 | 100 | 80 | 80 | 80 | Pre-emergence action against PHBPU in % [18]: 80%; Post-emergence action against ORYSA in % ([10]; 20 g/ha, effect vs untreated controls): 0%; Post-emergence action against TRZAS in % ([12]; 20 g/ha): 0%; Post-emergence action against PHBPU in % [19]: 80%; Pre-emergence action against LOLRI in % [21]: 100%
3 | 0 | 0 | 0 | 0 | CSCCOC(=O)COc1nn(-c2ccccn2)c(-c2ccc(F)nc2)c1Br [Example I-95] | 80 | 90 | 100 | 100 | 100 | 90 | 80 | 100 | 80 | 80 | 80 | 90 | 80 | 80 | Post-emergence action against ABUTH in % ([16]; 320 g/ha): 80%; Post-emergence action against SETVI in % [22]: 90%; Post-emergence action against ALOMY in % [23]: 100%; Post-emergence action against LOLRI in % [24]: 80%; Pre-emergence action against MATIN in % [25]: 80%; Post-emergence action against MATIN in % [26]: 80%; Pre-emergence action against ZEAMX in % ([9]; 320 g/ha): 0%; Post-emergence action against ECHCG in % [27]: 90%; Pre-emergence action against VIOTR in % ([14]; dosage 80 g/ha): 100%; Post-emergence action against POLCO in % ([15]; dosage 80 g/ha): 80%; Post-emergence action against AVEFA in % ([28]; 80 g/ha): 80%; Post-emergence action against AVEFA in % ([28]; 320 g/ha): 80%; Post-emergence action against VERPE in % ([20]; 320 g/ha, VERPE): 80%
